Experiments:
P. mirabilis (ATCC29906) [1] = test: Antibacterial strength (bacteriostatic reduction rate) by Methods 1 to 4, broth culture absorbance at 600 nm; assay type: cell-based; conditions: Proteus mirabilis, 16 hours, 35° C.; for inhibition of growth at 200 µg/mL: amount of antibacterial composition added 0.005 g in 25 ml broth, 3,000 CFU/ml, read-out: Antibacterial strength (%) Method 2; for inhibition of growth at 400 µg/mL: amount of antibacterial composition added 0.01 g in 25 ml broth, 3,000 CFU/ml, read-out: Antibacterial strength (%) Method 4; for inhibition of growth at 600 µg/mL: amount of antibacterial composition added 0.015 g in 25 ml broth, 3,000 CFU/ml, read-out: Antibacterial strength (%) Method 1; for inhibition of growth at 800 µg/mL: amount of antibacterial composition added 0.02 g in 25 ml broth, 3,000 CFU/ml, read-out: Antibacterial strength (%) Method 3
Method: (§1) After 25 ml of a broth-type medium (Nutrient broth, BD DIFCO., 8 g/L) inoculated with 3,000 CFU/ml bacteria is put into a 50 mL conical tube, 0.015 g of the antibacterial composition is added thereto and suspended (by vortexing), a sufficiently mixed solution is incubated for 16 hours in a shaking water bath maintained at 35° C.
(§2) After the incubated solution was diluted to ⅕ using a 1×PBS buffer solution, absorbance (λ=600 nm) was measured using a UV/Vis spectrophotometer, and the antibacterial strength, which is a bacteriostatic reduction rate, is calculated by the following equation by comparing the measured absorbance with a solution incubated without the addition of the antibacterial composition.
(§3) Antibacterial strength(%)=(1−Asample/AReference)×100 • Asample=Absorbance of medium solution incubated by adding antibacterial composition • AReference=Absorbance of medium solution incubated without addition of antibacterial composition
(§4) This method is the same as Method 1, except that 0.005 g of the antibacterial composition is added instead of 0.015 g of the antibacterial composition.
(§5) This method is the same as Method 1, except that 0.02 g of the antibacterial composition is added instead of 0.015 g of the antibacterial composition.
(§6) This method is the same as Method 1, except that 0.01 g of the antibacterial composition is added instead of 0.015 g of the antibacterial composition.
The antibacterial strength of Monomers 1 to 10 and Comparative Monomers 1 and 2 by Methods 1 to 4 was measured, and is shown in the following Table 1. In this case, the P. mirabilis (ATCC29906) bacteria were used.

P. mirabilis (ATCC29906) [2] = test: Time at which 99.9% of the antibacterial strength is confirmed (Methods 1 to 4); assay type: cell-based, Proteus mirabilis; conditions: for Time at which 99.9% of the antibacterial strength is confirmed, Method 2: amount of antibacterial composition added 0.005 g; for Time at which 99.9% of the antibacterial strength is confirmed, Method 4: amount of antibacterial composition added 0.01 g; for Time at which 99.9% of the antibacterial strength is confirmed, Method 1: amount of antibacterial composition added 0.015 g; for Time at which 99.9% of the antibacterial strength is confirmed, Method 3: amount of antibacterial composition added 0.02 g
Method: as §1, §2, §3, §4, §5, §6
The time at which 99.9% of the antibacterial strength of Monomers 1 to 10 and Comparative Monomers 1 and 2 is confirmed is shown in the following Table 2.

[3] = Acute oral toxicity dose LD50 by 3T3 Neutral Red Uptake (NRU) assay (OECD Guidance Document No 129); assay type: cell-based; conditions: mouse, 3T3 cells, po, calculated from 3T3 NRU assay
Method: (§7) The acute oral toxicity dose LD50 and acute percutaneous toxicity dose LD50 were measured by 3T3 Neutral Red Uptake (NRU) assay (OECD Guidance Document No 129). Specifically, the acute oral toxicity dose LD50 and acute percutaneous toxicity dose LD50 can be calculated by the following method: […]

3T3 = test: as above; assay type: cell-based; conditions: calculated from 3T3 NRU assay
Method: as §7

[4] = Acute percutaneous toxicity dose LD50 by 3T3 Neutral Red Uptake (NRU) assay (OECD Guidance Document No 129); assay type: cell-based; conditions: mouse, 3T3 cells, other: percutaneous, calculated from 3T3 NRU assay
Method: as §7

Row | SMILES | inhibition of growth at 200 µg/mL (P. mirabilis (ATCC29906) [1]) [%] | inhibition of growth at 400 µg/mL (P. mirabilis (ATCC29906) [1]) [%] | inhibition of growth at 600 µg/mL (P. mirabilis (ATCC29906) [1]) [%] | inhibition of growth at 800 µg/mL (P. mirabilis (ATCC29906) [1]) [%] | Time at which 99.9% of the antibacterial strength is confirmed, Method 2 (P. mirabilis (ATCC29906) [2]) | Time at which 99.9% of the antibacterial strength is confirmed, Method 4 (P. mirabilis (ATCC29906) [2]) | Time at which 99.9% of the antibacterial strength is confirmed, Method 1 (P. mirabilis (ATCC29906) [2]) | Time at which 99.9% of the antibacterial strength is confirmed, Method 3 (P. mirabilis (ATCC29906) [2]) | LD50 [3] [mg/kg] | Acute oral toxicity dose (mg/Kg) LD50 (3T3) | LD50 [4] [mg/kg]
1 | C=C(C)C(=O)OCC[N+](CCCC)(CCCCCC)CCCCCCCCCC (centres unmarked) [Monomer 6] | 99.9 | 99.9 | 99.9 | 99.9 | Within 1 hour | Within 1 hour | Within 1 hour | Within 1 hour | ≥ 1000 | 1,111 mg/Kg | ≥ 2000
2 | C=CC(=O)OCCCC[N+](CCCC)(CCCC)CCCCCCCC [Monomer 9] | 61.2 | 70 | 99.9 | 99.9 |  |  | Within 1 hour | Within 1 hour | ≥ 1000 | 1,498 mg/Kg | ≥ 2000
3 | C=CC(=O)OCC[N+](CCCC)(CCCC)CCCCCC [Comparative Monomer 1, reference compound] | 22.6 | 30.7 | 38.8 | 46.9 |  |  |  |  | 2360 |  | 
4 | C=C(C)C(=O)OCC[N+](CCCCCC)(CCCCCC)CCCCCCCCCC [Monomer 5] | 99.9 | 99.9 | 99.9 | 99.9 | Within 1 hour | Within 1 hour | Within 1 hour | Within 1 hour | ≥ 1000 | 1,078 mg/Kg | ≥ 2000
5 | C=CC(=O)OCC[N+](CCCCCCCCCCCCCC)(CCCCCCCCCCCCCC)CCCCCCCCCCCCCC [Comparative Monomer 2, reference compound] | 99.9 | 99.9 | 99.9 | 99.9 | Within 1 hour | Within 1 hour | Within 1 hour | Within 1 hour | 231 |  | 
6 | C=C(C)C(=O)OCC[N+](CCCC)(CCCCCCCCCC)CCCCCCCCCC [Monomer 8] | 99.9 | 99.9 | 99.9 | 99.9 | Within 1 hour | Within 1 hour | Within 1 hour | Within 1 hour | 869 |  | ≥ 2000
7 | C=CC(=O)OCC[N+](CCCC)(CCCC)CCCCCCCC [Monomer 1] | 59.3 | 68.2 | 99.9 | 99.9 |  |  | Within 1 hour | Within 1 hour | ≥ 1000 | 1,708 mg/Kg | ≥ 2000
8 | C=CC(=O)OCC[N+](CCCCCCCC)(CCCCCCCC)CCCCCCCC [Monomer 4] | 99.9 | 99.9 | 99.9 | 99.9 | Within 1 hour | Within 1 hour | Within 1 hour | Within 1 hour | ≥ 1000 | 1,442 mg/Kg | ≥ 2000
9 | C=CC(=O)OCC[N+](CCCC)(CCCC)CCCCCCCCCC [Monomer 2] | 99.9 | 99.9 | 99.9 | 99.9 | Within 1 hour | Within 1 hour | Within 1 hour | Within 1 hour | ≥ 1000 | 1,369 mg/Kg | ≥ 2000
10 | C=C(C)C(=O)OCC[N+](CCCC)(CCCCCCCC)CCCCCCCCCC (centres unmarked) [Monomer 7] | 99.9 | 99.9 | 99.9 | 99.9 | Within 1 hour | Within 1 hour | Within 1 hour | Within 1 hour | 998 |  | ≥ 2000
11 | C=CC(=O)OCC[N+](CCCC)(CCCC)CCCCCCCCCCCC [Monomer 3] | 99.9 | 99.9 | 99.9 |  | Within 1 hour | Within 1 hour | Within 1 hour | Within 1 hour | 843 |  | ≥ 2000
12 | C=CC(=O)OCCCC[N+](CCCCCCCC)(CCCCCCCC)CCCCCCCC [Monomer 10] | 99.9 | 99.9 | 99.9 | 99.9 | Within 1 hour | Within 1 hour | Within 1 hour | Within 1 hour | ≥ 1000 | 1,242 mg/Kg | ≥ 2000

Source: patent publication US20240107999A1, “ANTIBACTERIAL COMPOSITION” (LG CHEM, LTD., priority 2021, published 2024)
